Assay results as given in patent publication US10780047B2, “Method of providing birth control” (The Population Council, Inc., priority 2019, dated 2020).
Values after ≈ are worked out from the molar mass of the structure shown. Where two headings read alike, the source gives them in different places.

How the values were obtained:
[1] = biological target: cytochrome P450 (CYP) 3A4 isoenzyme (Homo sapiens, UniProt P08684)
Text: These are present as free metabolites and as sulfate and glucuronide conjugates.

[2] = Pharmacokinetics of the vaginal system in 39 women over up to 13 product-use cycles; assay type: in vivo, human; set-up: AUC(0-t) / AUC0-21day / AUC0-1day: concentration or dose not given beside the values; conditions: vaginal administration; for AUC0-1day / AUC0-21day / Cavg / Cmax / AUC(0-t): mean (SD)
Protocol: The pharmacokinetics (PK) of the vaginal system described herein were determined in 39 women who used the system for up to 13 product-use cycles. […] Over subsequent product-use cycles, the peak serum concentrations of SA and EE declined. Serum concentration-time profiles of SA and EE for product-pse cycles 1, 3, and 13 of system use are provided in FIG. 1 and FIG. 2 with PK parameters summarized in Table 3 and Table 4.

Solubility = conditions: descriptive term
[3] = Residual amount of drug in vaginal systems used in clinical trials over 13 product-use cycles; assay type: in vivo, human; conditions: based on residual drug in used systems
Protocol: Although the vaginal system provides SA and EE in the approximate rates described above, SA and EE can diffuse out of the vaginal system with release rates that vary over time. In certain embodiments, the daily in vitro release rates of SA and EE are higher during each initial 24-48 hours of use in a given product-use cycle, achieving a somewhat lower steady-state with continued use over subsequent days in each product-use cycle. Based on the residual amount of drug in vaginal systems used in clinical trials over 13 product-use cycles, a total of approximately 41.3 mg of SA and approximately 3.4 mg of EE are released over this period.

[4] = in vivo
serum albumin = serum albumin (Homo sapiens, UniProt P02768); assay: Serum albumin binding; assay type: in vitro ADME; conditions: not specifically bound
Sequence of serum albumin (P02768 25-609): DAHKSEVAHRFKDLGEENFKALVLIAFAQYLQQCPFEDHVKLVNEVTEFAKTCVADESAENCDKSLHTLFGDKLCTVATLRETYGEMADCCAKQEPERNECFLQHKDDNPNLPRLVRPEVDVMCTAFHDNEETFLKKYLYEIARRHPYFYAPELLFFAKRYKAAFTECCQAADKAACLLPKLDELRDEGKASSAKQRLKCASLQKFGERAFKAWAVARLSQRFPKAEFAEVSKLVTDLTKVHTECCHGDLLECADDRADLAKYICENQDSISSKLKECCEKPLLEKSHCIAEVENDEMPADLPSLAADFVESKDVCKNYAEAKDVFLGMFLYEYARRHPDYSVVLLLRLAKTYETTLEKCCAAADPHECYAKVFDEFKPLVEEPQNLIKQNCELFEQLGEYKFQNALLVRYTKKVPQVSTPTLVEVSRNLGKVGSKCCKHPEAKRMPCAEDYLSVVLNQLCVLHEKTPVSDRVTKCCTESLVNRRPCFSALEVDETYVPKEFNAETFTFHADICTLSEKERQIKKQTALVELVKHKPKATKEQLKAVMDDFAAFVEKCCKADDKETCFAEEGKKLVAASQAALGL

[5] = co-administration of atorvastatin or rosuvastatin and certain CHCs containing EE; cited from earlier work
[6] = Drug-drug interaction study with vaginal miconazole formulations; assay type: in vivo, human; conditions: for overall increase in exposure: concurrent 1 day or 3-day oil-based miconazole suppository; for change in exposure from the vaginal system: concurrent water-based vaginal miconazole cream
Text: However, the use of either the 1 day or the 3-day oil-based miconazole suppository was associated with an overall increase in exposure up to 67% for EE and 32% for SA. Considering the potential long-term effect on vaginal system performance, concurrent use of oil-based vaginal suppositories should not occur with the system's use. If there is a need to treat a vaginal condition, water-based vaginal cream or oral therapy may be used concurrently with the vaginal system.

CYP enzymes = assay: In vitro CYP inhibition/induction studies; assay type: in vitro ADME; conditions: at the therapeutic dose
rats [7] = assay: Return to fertility study in rats with subdermal implants; assay type: in vivo, rat
Protocol: A return to fertility study was conducted with segesterone acetate in rats, using subdermal implants releasing a dose approximately 25 times the anticipated daily vaginal human dose (based on body surface area).

mouse = assay: In vivo mouse micronucleus test
QTc interval = assay: Phase 1 thorough QTc study; assay type: in vivo, human; conditions: single intravenous bolus dose giving 4.5-fold the therapeutic serum concentrations; 44 healthy adult female subjects
Protocol: The effect of SA on the QTc interval was evaluated in a Phase 1 randomized, placebo and positive controlled, double-blind, single-dose, three-period, crossover thorough QTc study in 44 healthy adult female subjects.

physchem = conditions: water
rats [8] = assay: 2-year carcinogenicity study in rats with subdermal implants; assay type: in vivo, rat; conditions: subdermal implants releasing 40, 100, and 200 μg per day, 2 years
Text: (§1) Long-term continuous administration of natural and synthetic estrogens in certain animal species increases the frequency of carcinomas of the breast, uterus, cervix, vagina, testis, and liver.

[9] = biological target: T1, sex hormone-binding globulin (SHBG) (Homo sapiens, UniProt P04278); assay: Binding affinity for SHBG
T1 sequence (P04278 30-402): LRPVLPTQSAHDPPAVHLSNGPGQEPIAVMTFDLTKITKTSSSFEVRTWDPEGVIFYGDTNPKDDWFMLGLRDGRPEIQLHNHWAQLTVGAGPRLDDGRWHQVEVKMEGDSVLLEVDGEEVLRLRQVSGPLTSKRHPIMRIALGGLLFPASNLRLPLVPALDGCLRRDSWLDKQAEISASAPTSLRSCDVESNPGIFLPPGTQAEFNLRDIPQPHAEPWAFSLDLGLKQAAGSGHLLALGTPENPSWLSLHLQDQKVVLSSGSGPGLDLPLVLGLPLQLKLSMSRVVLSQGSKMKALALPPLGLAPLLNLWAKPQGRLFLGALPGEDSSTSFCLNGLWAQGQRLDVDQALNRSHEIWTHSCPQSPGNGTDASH

mice = assay: 2-year intravaginal carcinogenicity study in mice; assay type: in vivo, mouse; conditions: intravaginal gel, 2 years
Text: as §1

clinical = conditions: human, in vivo
Salmonella = assay: Ames/Salmonella reverse mutation assay; assay type: cell-based
[10] = tested on: Chinese hamster ovary cells; assay: Chromosomal aberration assay; assay type: cell-based
human serum proteins = assay: Serum protein binding; assay type: in vitro ADME

Sequence of cytochrome P450 (CYP) 3A4 isoenzyme (P08684 whole entry): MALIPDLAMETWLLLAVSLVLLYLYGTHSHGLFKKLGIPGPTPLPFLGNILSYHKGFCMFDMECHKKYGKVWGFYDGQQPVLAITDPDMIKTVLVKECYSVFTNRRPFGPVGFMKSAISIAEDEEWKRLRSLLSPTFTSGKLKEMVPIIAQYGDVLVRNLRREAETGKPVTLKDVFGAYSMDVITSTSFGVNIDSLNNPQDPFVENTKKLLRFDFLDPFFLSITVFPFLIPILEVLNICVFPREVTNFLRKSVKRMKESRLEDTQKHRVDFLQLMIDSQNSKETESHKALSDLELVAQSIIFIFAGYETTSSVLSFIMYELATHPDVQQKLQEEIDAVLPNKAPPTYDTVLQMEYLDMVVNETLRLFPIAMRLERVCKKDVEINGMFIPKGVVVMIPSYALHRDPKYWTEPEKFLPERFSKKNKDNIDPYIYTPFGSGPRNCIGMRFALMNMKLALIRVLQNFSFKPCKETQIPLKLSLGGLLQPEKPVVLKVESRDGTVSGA

C#C[C@]1(O)CC[C@H]2[C@@H]3CCc4cc(O)ccc4[C@H]3CC[C@@]21C [EE, 19-nor-17α-pregna-1,3,5(10)-trien-20-yne-3,17-diol]
metabolizing enzyme [1]: metabolized by the cytochrome P450 (CYP) 3A4 isoenzyme
AUC0-1day ([2]; Cycle 1, serum): 2.1 (0.7) ng * hr/mL
AUC0-21day ([2]; Cycle 1, serum): 22.2 (9.8) ng * hr/mL
Cavg ([2]; Cycle 1, serum): 44 (19) pg/mL
Cmax ([2]; Cycle 1, serum): 129 (39) pg/mL
AUC0-1day ([2]; Cycle 3, serum): 0.9 (0.4) ng * hr/mL
AUC0-21day ([2]; Cycle 3, serum): 14.7 (4.7) ng * hr/mL
Cavg ([2]; Cycle 3, serum): 29 (9) pg/mL
Cmax ([2]; Cycle 3, serum): 60 (32) pg/mL
AUC0-1day ([2]; Cycle 13, serum): 0.7 (0.3) ng * hr/mL
AUC0-21day ([2]; Cycle 13, serum): 9.6 (4.1) ng * hr/mL
Cavg ([2]; Cycle 13, serum): 19 (8) pg/mL
Cmax ([2]; Cycle 13, serum): 39 (16) pg/mL
median Tmax ([2]; product-use cycle 1, 3 and 13): about 2 hours
solubility in alkaline solution (Solubility): dissolves
total amount released [3]: approximately 3.4 mg
half-life ([4]; human): 15.1 (7.5) hours
effect on serum concentrations of SHBG [4]: induces an increase
bound to serum albumin (serum albumin): 98.5%
increase in systemic exposure of EE [5]: 20-25%
overall increase in exposure [6]: up to 67%
change in exposure from the vaginal system [6]: no change

C=C1C[C@H]2[C@@H]3CCC4=CC(=O)CC[C@@H]4[C@H]3CC[C@]2(C)[C@@]1(OC(C)=O)C(C)=O [SA, 16-methylene-17α-acetoxy-19-nor-pregn-4-ene-3,20-dione]
inhibition or induction of CYP enzymes (CYP enzymes): unlikely to inhibit or induce CYP enzymes
metabolizing enzyme ([1]; human): metabolized by the cytochrome P450 (CYP) 3A4 isoenzyme
Cavg ([2]; Cycle 1, serum): 191 (34) pg/mL
Cavg ([2]; Cycle 3, serum): 131 (29) pg/mL
Cavg ([2]; Cycle 13, serum): 94 (20) pg/mL
AUC(0-t) ([2]; female, human, serum, Cycle 1, serum, read-out: AUC0-1day): 15 ng·h/mL
AUC(0-t) ([2]; female, human, serum, Cycle 1, serum, read-out: AUC0-21day): 96.2 ng·h/mL
Cmax ([2]; female, human, serum, Cycle 1, serum, read-out: Cmax): 1.15 ng/mL
AUC(0-t) ([2]; female, human, serum, Cycle 3, serum, read-out: AUC0-1day): 5 ng·h/mL
AUC(0-t) ([2]; female, human, serum, Cycle 3, serum, read-out: AUC0-21day): 65.9 ng·h/mL
Cmax ([2]; female, human, serum, Cycle 3, serum, read-out: Cmax): 0.363 ng/mL
AUC(0-t) ([2]; female, human, serum, Cycle 13, serum, read-out: AUC0-1day): 3.9 ng·h/mL
AUC(0-t) ([2]; female, human, serum, Cycle 13, serum, read-out: AUC0-21day): 47.2 ng·h/mL
Cmax ([2]; female, human, serum, Cycle 13, serum, read-out: Cmax): 0.294 ng/mL
Tmax ([2]; female, human, serum, product-use cycle 1, 3 and 13, read-out: median Tmax): ~2 h
effects on ovulation or litter parameters after treatment (rats [7]; 7 weeks after cessation of treatment): no adverse effects on ovulation or resulting litter parameters
effect on fertility (rats [7]; subdermal implants, three months of treatment, approximately 25 times the human dose): suppressed fertility
micronucleus test result (mouse): neither mutagenic nor elastogenic
effect on the QTc interval (QTc interval): did not prolong the QTc interval to any clinically relevant extent
solubility (physchem): 18.5 µg/mL (≈ 49.9 µM)
tumor incidence (rats [8]): no drug-related increase in tumor incidence
binding affinity for sex hormone-binding globulin (SHBG) [9]: negligible
total amount released [3]: approximately 41.3 mg
carcinogenic findings (mice; 10 mg/kg/day): did not result in carcinogenic findings
carcinogenic findings (mice; 30 mg/kg/day): increased incidence of adenocarcinoma and lobular hyperplasia in the breast
Vd (clinical): 19.6 L/kg
half-life (clinical): 4.5 h
mutagenicity (Salmonella): neither mutagenic nor elastogenic
chromosomal aberration [10]: neither mutagenic nor elastogenic
bound to human serum proteins (human serum proteins): approximately 95%
overall increase in exposure [6]: ≤ 32%
change in exposure from the vaginal system [6]: no change
